# Laboratory results published in patent US6696621B2, “Selectable marker in plants” (Paradigm Genetics, Inc., priority 2001, dated 2004).
# B1: NRG protein: novel nourseothricin N-acetyltransferase, amino acid sequence of SEQ ID NO. 1; confers resistance to nourseothricin (protein)
# chain: MTTLDDTAYRYRTSVPGDAEAIEALDGSFTTDTVFRVTATGDGFTLREVPVDPPLTKVFPDDESDDESDDGEDGDPDSRTFVAYGDDGDLAGFVVVSYSGWNRRLTVEDIEVAPEHRGHGVGRALMGLATEFARERGAGHLWLEVTNVNAPAIHAYRRMGFTLCGLDTALYDGTASDGEQALYMSMPCP
# modifications: Novel protein conferring resistance to the antibiotic known as nourseothricin
# Legend:
# [1] = system: rice callus, derived from immature rice embryos of the variety TP309; test: Dose response of clonNAT on rice callus growth and survival; format: cell-based; conditions: 26° C. in the dark
# Description: a) Dose response. For selection of transgenic calli based on resistance to clonNAT following Agrobacterium-mediated transformation of rice callus material, a dose response experiment is made to determine the concentration of clonNAT in callus growth medium in order to inhibit the growth of rice callus, or to kill the rice cells. Growth media (GM) used for rice callus comprise the following basic components: N6 salts (Duchefa) 3.95 g/l; B5 vitamins (Duchefa) 112 mg/l; proline (Duchefa) 500 mg/l; glutamine (Duchefa) 500 mg/l; casein hydrolysate (Duchefa) 500 mg/l. […]
# Several pieces of rice callus, derived from immature rice embryos of the variety TP309 (National Small Grain Collection, USDA, ARS, Aberdeen, Id.) are put on these plates, the plates are incubated at 26° C. in the dark, and survival of the embryos and proliferation of the embryo cells are observed every day. Based on the survival rate of the embryos on the media plates containing different concentrations of clonNAT, a useful concentration of clonNAT for selection of transgenic rice is determined to be within a range of about 20 to about 1000 mg/l or more, preferably about 200 mg/l or less. […]
# [2] = system: wildtype Arabidopsis thaliana; test: Dose response of clonNAT sprayed on wildtype Arabidopsis thaliana seedlings; format: in vivo; conditions: sprayed on three consecutive days with 0.005% Silwet L-77; assessed 36 hours after last spray
# Description: a) Dose response. The selection conditions for plants that are transgenic with the nrg gene are determined in a dose response experiment. From about 2000 to 3000 wildtype Arabidopsis thaliana seeds per pot are sown in 5″×5″ (13 cm×13 cm) soil pots. When the first true leaves of the seedlings have emerged after approximately 7 days, the seedlings are sprayed with a hand-held sprayer until all leaf material is completely wet on three consecutive days with a solution of 0.005% Silwet L-77 (50 ul/l) in water and variable concentrations of clonNAT (1, 5, 10, 20, 50, 100, 250, 500 mg/l). The results are assessed 36 hours after the last spray. A useful range of concentration of clonNAT for selection of transgenic Arabidopsis plants (as assessed as concentrations that kill non-transgenic Arabidopsis plants after applying the described sprayings) is determined within a range of about 20 to about 1000 mg/l or more, preferably about 200 mg/l or less.
# [3] = Ability of NRG protein to impart resistance to nourseothricin; conditions: NRG protein with aspartate instead of glycine at position 70
molecule,measurement,setting,value
"2-[4-O-Carbamoyl-2-deoxy-2-(3,6-diaminohexan-amido)-B-D-gulopyranoslamino)-3,3a,5 ,6,7,7a-hexahydro-5-hydroxy-4H-imidazo[4,5-c]pyridin-4one dihydrogensulphate [clonNAT]",preferred concentration of clonNAT for selection of transgenic rice,"[1]; callus growth medium plates, based on survival rate of embryos",≤ 200 mg/L
same,fate of embryo-derived rice callus on clonNAT-containing medium plates,"[1]; clonNAT 200 mg/l selection plates, after 4-5 weeks",died
same,preferred concentration of clonNAT for selection of transgenic Arabidopsis plants,[2],≤ 200 mg/L
B1,ability to impart resistance to the nourseothricin antibiotic,[3],retains the ability to impart resistance
